Measurements: patent US6573278B2, “Aryl sulfonamides and analogues thereof and their use in the treatment of neurodegenerative diseases” (Bayer Aktiengesellschaft, priority 1997, dated 2003)
pIC50, pKi: −log10 of the molar value. Structures can show the parent of a compound that is named as a salt. Marks after values point to notes of the source that are not given here.

Assays:
rat CB1 receptor = biological target: T1, rat CB1 receptor (Rattus norvegicus, UniProt P20272); experiment: CB1 luciferase reporter gene test (CHOluc9 cells, forskolin-stimulated); type: cell-based; settings: CHOluc9 cells with rat CB1, forskolin
T1 construct: contains an open reading frame of 1419 base pairs which corresponds to a protein of 473 amino acids; expressed in transfected cells; host or cells: CHOluc9 cells, stably transfected with plasmid CMV-RH (pRc/CMV)
Description: CB1—Luciferase Reporter Gene Test
1. Cloning of the Rat Cannabinoid Receptor CB1
Total RNA from rat brain (the tissue was taken from freshly killed animals and shock-frozen in liquid nitrogen) was isolated by acidic guanidinium thiocyanate/phenol/chloroform extraction (J. Biol. Chem. 1979, 18, 5294) and converted into cDNA by means of reverse transcriptase and random primers (in each case from Invitrogen). The polymerase chain reaction (PCR, conditions: 4 min 94° C., 1×; 1 min 94° C.; 2 min 53° C.; 1 min 72° C., 50 cycles; 1 min 94° C., 2 min 53° C., 4 min 72° C., 1×) was carried out in a Perkin Elmer thermocycler using the enzyme Taq polymerase (Perkin Elmer); the oligonucleotide primers employed (bases 99 to 122: 5′→3′, “down”; 1556-1575: 3′←5′, “up”) were derived from the published sequence of the rat cannabinoid receptor (Nature 1990, 346, 561) and were synthesized on a DNA synthesizer, model 1380 from Applied Biosystems. One part of the PCR reaction was separated in a 1% strength agarose gel in 1× TBE buffer and then stained with ethidium bromide, only one band having the expected length being visible (approximately 1.5 kb). This PCR product was subcloned into the TA cloning vector (Invitrogen) and the nucleotide sequence of the inserts was determined by the dideoxynucleotide chain termination reaction using T7DNA polymerase (Sequenase, USA/Amersham). The insert has a length of 1477 base pairs and contains an open reading frame of 1419 base pairs which corresponds to a protein of 473 amino acids. The number of base pairs, the position of the open reading frame and the number of amino acids agree with the published sequence. Computer analyses were carried out with the aid of the GCG software suite (Genetic Computer Group). The cDNA insert was subcloned into the expression vector pRc/CMV after partial digestion with HindIII and NotI (Biolabs). This construct (plasmid CMV-RH) was employed for transfection experiments.
2. Stable Transfection of the CHOluc9 Reporter Cells
CHOluc9 cells were cultured in 50% Dulbecco's modified Eagle medium/50% F-12 (DMEM/F12) which contained 10% foetal calf serum (FCS). Transfections were prepared in 6-well plates. 7.5 μg of Qiagen-purified CMV-RH plasmid DNA were added per […] with the DOTAP transfection system, corresponding to the experimental protocol of the manufacturer (Boehringer Mannheim). Transfected cells were selected using 1 mg/ml G418 and individual clones were obtained by limiting dilution in 96-well plates. Cell lines which express the cannabinoid receptor were identified for the inhibition of reporter gene expression after incubation with the cannabinoid receptor agonist, WIN-55,212-2, in the presence of forskolin. Several stable transfected and subcloned cell lines were further characterized by means of RT-PCR, as described under 1.
3. Test Optimization and Pharmacological Characterization of the CHOCB1 Reporter Cell Line
With the aim of high sensitivity and reproducibility, low variance and high suitability for carrying out on the robotic system, the luciferase test was optimized by variation of several test parameters, such as, for example, cell density, duration of the growth phase and the test incubation, forskolin concentration, medium composition. […]

[1] = Rat hypothermia, agonism testing; type: in vivo; settings: i.v.
Description: Five minutes after determination of the basal body temperature via an oesophageal temperature probe, the test substance is administered (i.v.). A control group receives only the solvent for the test substances, likewise i.v. The body temperature is measured 7.5, 15, 30 and 60 minutes after i.v. administration. The group size per dose is 5-7 animals (rats).
Rat hypothermia—Agonism testing

[2] = biological target: T2, CB1 receptor (rat cortex membranes) (Rattus norvegicus, UniProt P20272); experiment: Binding studies on rat cortex membranes; settings: read-out: Ki, affinity for the CB1 receptor (rat cortex membranes)
T2 construct: from tissue; host or cells: rat cortex membranes
Description: Binding Studies on Rat Cortex Membranes
Membrane protein is prepared from different tissues or from cells by standard methods. Buffer, labelled ligand, DMSO or test substance are pipetted together, then 100 μg of protein are added, and the mixture is well mixed and incubated in a water bath at 30° C. for 60 min. After expiry of the incubation time, the reaction is stopped by addition of ice-cold incubation buffer to each tube. After filtering off, washing is carried out with ¾ ml of incubation buffer. The filters are transferred to minivials and the radioactivity is determined in a scintillation counter. Affinity for the CB1 receptor (rat cortex membranes)

[3] = system: permanent focal cerebral ischaemia (MCA-O); experiment: Permanent focal cerebral ischaemia in the rat (MCA-O); type: in vivo; settings: infarct size after 7 days
Description: Permanent Focal Cerebral Ischaemia in the Rat (MCA-O)
Under isoflurane anaesthesia, the median cerebral artery is exposed on one side and the latter and its side branches are irreversibly sealed by means of electrocoagulation. As a result of the intervention a cerebral infarct is formed. During the operation, the body temperature of the animal is kept at 37° C. After wound closure and wearing off of the anaesthesia, the animals are again released into their cage. The administration of substance is carried out according to different time schemes and via different administration routes (i.v., i.p.) after occlusion. The infarct size is determined after 7 days. To do this, the brain is removed, worked up histologically and the infarct volume is determined with the aid of a computer-assisted analysis system.
Activity in the model of permanent focal cerebral ischaemia (MCA-O)

[4] = system: subdural haematoma in the rat (SDH); experiment: Subdural haematoma in the rat (SDH); type: in vivo
Description: Subdural Haematoma in the Rat (SDH)
Under anaesthesia, the animal's own blood is injected subdurally on one side An infarct is formed under the haematoma. Substance administration is carried out according to different time schemes and via different administration routes (i.v., i.p.) The determination of the infarct size is carried out as described in the model of permanent focal ischaemia in the rat (MCA-O)
Activity in the model “subdural haematoma in the rat (SDH)”

[5] = 0.03 mg/kg/h, i.v. continuous infusion directly up to 4 hours after occlusion
[6] = 0.1 mg/kg, i.v. bolus injections directly, 2 and 4 hours after occlusion

T1 sequence (P20272 whole entry): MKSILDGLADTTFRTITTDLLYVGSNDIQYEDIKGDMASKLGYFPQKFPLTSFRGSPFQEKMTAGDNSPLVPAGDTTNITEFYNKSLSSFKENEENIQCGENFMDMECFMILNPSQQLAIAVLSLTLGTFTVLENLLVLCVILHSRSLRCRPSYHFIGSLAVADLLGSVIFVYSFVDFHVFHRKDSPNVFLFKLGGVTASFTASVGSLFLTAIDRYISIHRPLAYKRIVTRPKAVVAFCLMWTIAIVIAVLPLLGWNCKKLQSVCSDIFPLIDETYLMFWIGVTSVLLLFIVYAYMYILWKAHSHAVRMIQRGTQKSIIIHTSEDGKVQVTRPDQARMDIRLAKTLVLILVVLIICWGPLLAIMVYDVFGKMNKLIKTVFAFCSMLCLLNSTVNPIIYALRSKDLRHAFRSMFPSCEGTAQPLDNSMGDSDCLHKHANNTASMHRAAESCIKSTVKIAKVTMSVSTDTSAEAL
T2 sequence (P20272 whole entry): as above

SMILES: CCCCCS(=O)(=O)Oc1ccc(Oc2cccc3ccccc23)cc1 [Example 99]
- pIC50 (rat CB1 receptor): 8.54
- ED−1° C., effective dose for 1° C. body temperature reduction [1]: 0.6 ^b) mg/kg

SMILES: CCCCCS(=O)(=O)Nc1ccc(Oc2cccc3c2CC(CO)(CO)C3)cc1
- melting point: 135 to 137 °C

SMILES: CCCCCS(=O)(=O)Nc1ccc(Oc2cccc3c2CCN(CCCC)C3)cc1
- melting point: 187 °C

SMILES: CCC(=O)Nc1ccc(Oc2ccc(NS(=O)(=O)Cc3ccccc3)cc2)c2ccccc12
- melting point: 180 °C

SMILES: CCCCS(=O)(=O)Nc1ccc(Oc2cccc3ccccc23)cc1 [Example 1, 1-N-(1-Butylsulfonyl)amino-4-(naphthyl-1-oxy)benzene]
- pIC50 (rat CB1 receptor): 7.82
- pKi [2]: 6.23
- ED−1° C., effective dose for 1° C. body temperature reduction [1]: 1.0 ^b) mg/kg
- % Reduction in the infarct volume [3, 5]: 35%
- % Reduction in the infarct volume [4, 6]: 54%
- % Reduction in the infarct volume ([4]; 1.0 mg/kg, i.v. bolus injections directly, 2 and 4 hours after occlusion): (84) %
- melting point: 108 to 109 °C

SMILES: CCCOS(=O)(=O)Nc1ccc(Oc2cccc3ccccc23)cc1
- melting point: 95 °C

SMILES: O=S(=O)(Cc1ccccc1)Nc1ccc(Oc2cccc3ccccc23)nc1 [Example 33]
- pIC50 (rat CB1 receptor): 8.00
- pKi [2]: 6.38
- ED−1° C., effective dose for 1° C. body temperature reduction [1]: 0.6 ^b) mg/kg
- % Reduction in the infarct volume [3, 6]: 33%
- % Reduction in the infarct volume [4, 6]: 42%
- melting point: 161 to 162 °C

SMILES: CCCCS(=O)(=O)Nc1ccc([S+]([O-])c2cccc3ccccc23)cc1 (stereo not drawn)
- melting point: 161 °C

SMILES: CCCC[S+]([O-])Nc1ccc(Oc2cccc3ccccc23)cc1 (stereo not drawn)
- melting point: 138 to 139 °C

SMILES: CCCCCS(=O)(=O)N(c1ccc(Oc2cccc3c2CCNC3)cc1)S(=O)(=O)CCCCC (as salt: hydrochloride)
- melting point: 162 °C

SMILES: O=S(=O)(CCCCl)Nc1ccc(Oc2cccc3ccccc23)cc1 [Example 65]
- pIC50 (rat CB1 receptor): 7.89
- pKi [2]: 6.60
- ED−1° C., effective dose for 1° C. body temperature reduction [1]: 1.0 ^b) mg/kg
- % Reduction in the infarct volume ([3]; 0.01 mg/kg/h): (47) %
- % Reduction in the infarct volume [3, 5]: 37%
- % Reduction in the infarct volume [4, 6]: 53%
- % Reduction in the infarct volume ([4]; 0.3 mg/kg/h, i.v. continuous infusion directly up to 4 hours post-trauma): (65) %
- melting point: 115 °C

SMILES: Nc1ccc(Oc2ccc(NS(=O)(=O)Cc3ccccc3)cc2)c2ccccc12 (as salt: hydrochloride)
- melting point: 252 °C

SMILES: CCCNS(=O)(=O)Nc1ccc(Oc2cccc3ccccc23)cc1
- melting point: 113 to 115 °C

SMILES: O=S(=O)(NCc1ccccc1)c1ccc(Oc2cccc3ccccc23)cc1
- melting point: 144 to 146 °C

SMILES: O=S(=O)(Cc1ccccc1)Nc1cccc(Oc2cccc3ccccc23)c1 [Example 51]
- pIC50 (rat CB1 receptor): 9.05
- pKi [2]: 7.39
- ED−1° C., effective dose for 1° C. body temperature reduction [1]: 0.1 ^b) mg/kg
- % Reduction in the infarct volume [3, 6]: 24%
- % Reduction in the infarct volume ([4]; 0.01 mg/kg/h, i.v. continuous infusion directly up to 4 hours post-trauma): 54%
- melting point: 139.5 °C

SMILES: CCCCC(=O)Nc1ccc(Oc2cccc3ccccc23)cc1
- melting point: 80 °C

SMILES: CCCCCS(=O)(=O)Oc1ccc(Oc2cccc3c2CCNC3)cc1
- melting point: 143 °C

SMILES: CCCCS(=O)(=O)Nc1ccc(S(=O)(=O)c2cccc3ccccc23)cc1
- melting point: 180 °C
